Tests used:
IL-1β = assay: THP-1 AlphaLISA IL-1β cytokine assay; format: cell-based; conditions: Homo sapiens; differentiated THP-1 cells; Table 2, compounds of formula (II)
How it was run: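 THP-1 cells differentiated 72 h with PMA, pre-incubated 30 min with compounds, stimulated 24 h with LPS, then 1 h with nigericin, all at 37 °C. Supernatant cytokine measured by AlphaLISA; % inhibition normalised to ±LPS controls and IC50 taken from concentration-response curves.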

hepatocytes [1] = assay: Hepatocyte stability assay, human; format: in vitro ADME; conditions: 10 μM compound, Table 6
How it was run: (§1)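 Cryopreserved hepatocytes (viability >70%) at 0.5×10^6 cells/mL in Leibovitz buffer, preincubated 10 min at 37 °C, then compound at 10 μM (0.1% DMSO) in duplicate; buffer-only incubations as control. Samples at 0-60 min quenched in acetonitrile, analysed by LC-MS/MS; half-life and CLint (μL min^−1 10^−6 cells) from ln % remaining versus time.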

[2] = Hepatocyte stability assay, human; format: in vitro ADME; conditions: cryopreserved hepatocytes, 10 μM compound, Table 6, read-out: T½
How it was run: as §1

IL-6 = assay: THP-1 AlphaLISA IL-6 cytokine assay; format: cell-based; conditions: Homo sapiens, THP-1, differentiated THP-1 cells; Table 2, compounds of formula (II)
Method: Biological Example 1—THP-1 AlphaLISA IL-1β and IL-6 Cytokine Assay Measuring Inhibitory Effects on IL-1, and IL-6 Cytokine Output from THP-1s The cytokine inhibition profiles of compounds of formula (I) were determined in a differentiated THP-1 cell assay. All assays were performed in RPMI-1640 growth medium (Gibco), supplemented with 10% fetal bovine serum (FBS; Gibco), 1% penicillin-streptomycin and 1% sodium pyruvate unless specified otherwise. The IL-1β and IL-6 cytokine inhibition assays were each run in a background of differentiated THP-1 cells as described below. All reagents described were from Sigma-Aldrich unless specified otherwise. Compounds were prepared as 10 mM DMSO stocks. THP-1 cells were expanded as a suspension up to 80% confluence in appropriate growth medium. Cells were harvested, suspended, and treated with an appropriate concentration of phorbol 12-myristate 13-acetate (PMA) over a 72 hr period (37° C./5% CO2). Following 72 hrs of THP-1 cell incubation, cellular medium was removed and replaced with fresh growth media containing 1% of FBS. Working concentrations of compounds were prepared separately in 10% FBS treated growth medium and pre-incubated with the cells for 30 minutes (37° C./5% CO2). Following the 30 minute compound pre-incubation, THP-1s were treated with an appropriate concentration of LPS and the THP-1s were subsequently incubated for a 24 hr period (37° C./5% CO2). An appropriate final concentration of Nigericin was then dispensed into the THP-1 plates and incubated for 1 hour (37° C./5% CO2) before THP-1 supernatants were harvested and collected in separate polypropylene 96-well holding plates. Reagents from each of the IL-1β and IL-6 commercial kits (Perkin Elmer) were prepared and run according to the manufacturer's instructions. Subsequently, fluorescence signal detection in a microplate reader was measured (EnVision® Multilabel Reader, Perkin Elmer). Percentage inhibition was calculated per cytokine by normalizing the sample data to the high and low controls used within each plate (+/−LPS respectively). Percentage inhibition was then plotted against compound concentration and the 50% inhibitory concentration (IC50) was determined from the resultant concentration-response curve.

hepatocytes [3] = assay: Hepatocyte stability assay, mouse; format: in vitro ADME; conditions: 10 μM compound, Table 6
How it was run: as §1

[4] = Hepatocyte stability assay, mouse; format: in vitro ADME; conditions: mouse, cryopreserved hepatocytes, 10 μM compound, Table 6, read-out: T½
How it was run: as §1

NRF2 = NRF2 activation assay (DiscoverX PathHunter NRF2 translocation kit, U2OS cells); format: cell-based; conditions: Table 4, compounds of formula (II)
How it was run: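 PathHunter U2OS cells, grown 24 h at 37 °C/5% CO2, treated 6 h with compound; NRF2 nuclear translocation read as enzyme-fragment-complementation chemiluminescence. Activation normalised to dimethyl fumarate high and untreated low controls; EC50 from concentration-response curve.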

Compound | IC50 (IL-1β) | CIint (hepatocytes [1]) | half-life at 10 μM [2] | IC50 (IL-6) | CIint (hepatocytes [3]) | half-life at 10 μM [4] | EC50 (NRF2; +GSH) | NRF2 activation Emax (NRF2; +GSH) | EC50 (NRF2; −GSH) | NRF2 activation Emax (NRF2; −GSH)
O=C(O)/C=C/C(=O)OC1(c2cccc(C(F)(F)F)c2)CCC1 [Intermediate 10, (E)-4-oxo-4-(1-(3-(trifluoromethyl)phenyl)cyclobutoxy)but-2-enoic acid] | 6 to 30 µM | ++ (++ means >30-110) | 5 to 29 min | 6 to 30 µM | ++ (++ means >30-110) | 30 to 100 min | < 23 µM | +++ (+++ means >114-150%) | < 23 µM | +++ (+++ means >114-150%)
O=C(O)/C=C/C(=O)OC1(c2ccc(Br)cc2)CCC1 [Intermediate 12, (E)-4-(1-(4-bromophenyl)cyclobutoxy)-4-oxobut-2-enoic acid] | 6 to 30 µM | +++ (+++ means >15-30) | 30 to 100 min | 6 to 30 µM | +++ (+++ means >15-30) | 30 to 100 min | < 23 µM | ++ (++ means >87-114%) | < 23 µM | ++ (++ means >87-114%)
O=C(O)/C=C/C(=O)OC1(c2cc(Cl)cc(Cl)c2)CCC1 [Intermediate 14, (E)-4-(1-(3,5-dichlorophenyl)cyclobutoxy)-4-oxobut-2-enoic acid] | 6 to 30 µM | ++++ (++++ means 5-15) | > 100 min | < 6 µM | ++ (++ means >30-110) | 5 to 29 min | < 23 µM | ++++ (++++ means >150%) | < 23 µM | ++++ (++++ means >150%)
O=C(O)/C=C/C(=O)OC1(c2ccc(C(F)(F)F)c(F)c2)CCC1 [Intermediate 16, (E)-4-(1-(3-fluoro-4-(trifluoromethyl)phenyl)cyclobutoxy)-4-oxobut-2-enoic acid] | < 6 µM | +++ (+++ means >15-30) | > 100 min | < 6 µM | +++ (+++ means >15-30) | 30 to 100 min | < 23 µM | +++ (+++ means >114-150%) | < 23 µM | ++++ (++++ means >150%)
C[C@H](OC(=O)/C=C/C(=O)O)c1ccc(C(F)(F)F)cc1 [Intermediate 19, (S,E)-4-oxo-4-(1-(4-(trifluoromethyl)phenyl)ethoxy)but-2-enoic acid] | 6 to 30 µM | ++++ (++++ means 5-15) | > 100 min | 6 to 30 µM | ++ (++ means >30-110) | 5 to 29 min | < 23 µM | +++ (+++ means >114-150%) | < 23 µM | ++++ (++++ means >150%)
C[C@@H](OC(=O)/C=C/C(=O)O)c1ccc(C(F)(F)F)cc1 [Intermediate 20, (R,E)-4-oxo-4-(1-(4-(trifluoromethyl)phenyl)ethoxy)but-2-enoic acid] | 6 to 30 µM | ++++ (++++ means 5-15) | > 100 min | 6 to 30 µM | +++ (+++ means >15-30) | 30 to 100 min | 23 to 48.4 µM | + (+ means >50-<87%) | < 23 µM | +++ (+++ means >114-150%)
O=C(O)/C=C/C(=O)OC1(c2cc(Cl)cc(OC(F)(F)F)c2)CCC1 [Intermediate 41, (E)-4-(1-(3-chloro-5-(trifluoromethoxy)phenyl)cyclobutoxy)-4-oxobut-2-enoic acid] | 6 to 30 µM | ++++ (++++ means 5-15) | > 100 min | 6 to 30 µM | ++ (++ means >30-110) | 30 to 100 min |  |  |  | 

Reference: patent US20240010606A1, “FUMARATE DERIVATIVES AND THEIR MEDICAL USE” (Sitryx Therapeutics Limited, priority 2020, published 2024)
